Measurements reported in US20060014726A1, “Derivatives of cyclic1, 3- propanediol phosphate and their action in differentiation therapy” (priority 2002, published 2006).

Key:
[1] = system: estrogen receptor-α (ER-α) in MCF-7 cells; experiment: Western blot analysis of ER-α level in MCF-7 cells; format: cell-based, human; settings: MCF-7 cells treated for 9 days (FIG. 9)
Protocol: Turning to FIG. 1 there are shown Western blot analyses showing the effect of 1,3cPP on the expression level of ER-α. In the ER-α assay, MCF-7 cells were incubated with 1-100 μM 1,3cPP for up to 14 days. The analysis indicates a relative increase in the level of wild type ER-α receptor (MW 70,000) with either an increase in 1,3cPP concentration or time of incubation. On days 6 and 14, a nearly 2-fold and 3-fold increase were observed, respectively (FIGS. 1A, C, D, F). […] This band could be related to one of deleted exons D3-4 (MW 49,000), D4 (MW 54,000), or D7 (MW 51,000) ER-α variants.
(§1) Breast Cancer Cells. The human breast cancer MCF-7 cell line were obtained from Prof. Hadassa Degani, of Weizmann Institute of Science, Rehovot, Israel. The cells were grown as monolayers in high glucose DMEM supplemented with 6% fetal calf serum and combined antibiotics. Human breast cancer T47D cells, clones 8 (ER^loPR^lo) and 11 (ER^+PR^+) were obtained from Prof Iafa Keydar, Tel-Aviv university and were grown in DMEM supplemented with 10% fetakl calf serum antibiotics. K562 erythroleukemia cells were obtained from Dr. Alfa Peled of Weizmann Institute of Science, Rehovot, Israel. These cells were grown in RPMI 1640 containing 10% fetal calf serum and antibiotics. All lines were grown at 37° C. in the presence of 5% CO2. The absence of Mycoplasma contamination was monitored by a Mycotrim TC test (Irvine Scientific, Santa Ana, Calif.) carried out once every 3 months.
For ER-α protein analysis, MCF-7 and T47D cells were cultured in 60×15 mm petri dishes. From the second day of culture onward, the cells were treated with various concentrations of 1,3cPP for up to 14 days. At the end of the incubation period, the medium was aspirated and the cells were washed 3 times with cold (4° C.) PBS. The cells were then gently scraped off using a rubber policeman in 0.25 ml of lysis buffer composed of 50 mM β-glycerophosphate, 1 mM DTT, 1.5 mM EGTA, 1 mM EDTA, 1% (Octylphenoxy)polyethoxyethanol (IGEPAL, Sigma, St. Louis, Mo.), a nonionic detergent, and a cocktail of protease inhibitors, including 1 mM phenylmethylsulfonyl fluoride (PMSF), 1 mM benzamidine, 10 μg/ml aprotinin, 10 μg/ml leupeptin, and 2 μg/ml pepstanin, as well as 1 mM sodium orthovanadate (Sigma, St. Louis, Mo.) as a phosphatase inhibitor. […] The protein concentration in each sample (1.5-4 mg/ml) was determined using the Coomassie Protein Assay (Pierce, Rockford, Ill.) according to the manufacturer's instructions. […] Bound antibodies were detected by horseradish peroxidase-conjugated goat anti-rabbit IgG, (Transduction Laboratories, Lexington, Ky. using the ECL detection method. Band densities were quantified by densitometry (Biorad model GS-690 Imaging densitometer) using Molecular Analyst software.

[2] = system: Casein Kinase in MCF-7 cells; experiment: Casein Kinase level in MCF-7 cells; format: cell-based, human; settings: MCF-7 cells treated for 9 days (FIG. 11)
[3] = system: progesterone receptor (PR) in MCF-7 cells; experiment: Western blot analysis of PR level in MCF-7 cells; format: cell-based, human; settings: MCF-7 cells treated for 9 days (FIG. 10)
Protocol: In an analogous manner, a set of experiments was preformed with MCF-7 cells for determining the level of PR upon incubation with varying concentrations of 1,3-cPP for a period of up to 11 days. Similar to the augmentation observed for ER-α, an increase of up to 2.8 and 2.2 fold expression of the wild type PR (MW 98,000), was observed from 10 μM 1,3-cPP and upwards on days 8 and 11, respecively (FIGS. 3A-D).
as §1
For ER-α protein analysis, MCF-7 and T47D cells were cultured in 60×15 mm petri dishes. From the second day of culture onward, the cells were treated with various concentrations of 1,3cPP for up to 14 days. At the end of the incubation period, the medium was aspirated and the cells were washed 3 times with cold (4° C.) PBS. […] The protein concentration in each sample (1.5-4 mg/ml) was determined using the Coomassie Protein Assay (Pierce, Rockford, Ill.) according to the manufacturer's instructions. […] Bound antibodies were detected by horseradish peroxidase-conjugated goat anti-rabbit IgG, (Transduction Laboratories, Lexington, Ky. using the ECL detection method. Band densities were quantified by densitometry (Biorad model GS-690 Imaging densitometer) using Molecular Analyst software.

[4] = system: K562 cells
Protocol: It is known from the literature that sodium butyrate derives K562 cells into the erythroid differentiation program (Sutherland et al. 1986). Base on such an observation, the ability of 1,3-cPP alone or in combination with sodium butyrate may trigger the erythroid differentiation program manifested by hemoglobin production.
K562 cells were incubated for 5 days in the presence or absence of 10 or 50 μM 1,3cPP and 1 mM butyric acid as a differentiating agent. Quantitative measurements of hemoglobin production was determined by staining of lysed cells with benzidine-peroxide reagent. The benzidine-peroxide reagent was prepared by dissolving 3,3′,5,5′-tetramethyl benzidine in 90% acetic acid and mixing with an equal volume of freshly prepared 1% hydrogen peroxide. Cell lysate, obtained by hypotonic lysing of 5×10^4 cells in 0.1 ml distilled water, was added to 0.1 ml benzidine reagent and incubated at room temperature for 10 minutes in the dark. Absorbance was measured at 515 nm and was taken as a relative index of the hemoglobin level.

## NC1(CO)COP(=O)(O)OC1 (stereo not shown) [Example 18, 5-Amino-5-hydroxymethyl-2-oxo-2λ5-[1,3,2]dioxaphosphi-nan-2-ol]
[1]
  Estrogen receptor alpha level: promotion of synthesis
[2]
  Casein Kinase level: promotion of Casein Kinase levels
[3]
  progestrone receptor level: promotion of synthesis

## CCCC(=O)[O-].[Na+] [sodium butyrate, reference compound]
[4]
  hemoglobin synthesis: only a small effect
